Measured values published in publication PMC4310556, “Radiosynthesis and in Vivo Evaluation of Two PET Radioligands for Imaging α-Synuclein” (Applied sciences (Basel, Switzerland), 2014).
Where “and” joins values, the source holds several entries; their conditions need not be identical. Equal values may be shown once. Blank lines part the entries; values can stand above or below the compound they belong to.

Assays:
[1] = Ex vivo biodistribution in rats; design: species or system Sprague-Dawley rats; settings: for Blood-brain barrier penetration: ex vivo rat biodistribution; for Biodistribution, blood / Biodistribution, brain (total brain uptake) / Biodistribution, fat / Biodistribution, heart / Biodistribution, kidney / Biodistribution, liver / Biodistribution, lung / Biodistribution, muscle / Biodistribution, pancreas / Biodistribution, spleen / Biodistribution, bone: male Sprague-Dawley rats, i.v. tail vein, n = 4; for Distribution of radioactivity in brain regions: rat brain regions, Figure 2
Description: All animal experiments were conducted in compliance with the Guidelines for the Care and Use of Research Animals under protocols approved by Washington University's Animal Studies Committee. […] Group of rats (n = 4) were used for each time point. […] The whole brain was quickly removed and dissected into segments consisting of brain stem, thalamus, striatum, hippocampus, cortex and cerebellum. The remainder of the brain was also collected to determine total brain uptake. […] Tissues were weighed, and the percent injected dose (%ID)/gram for each tissue was calculated.

[2] = MicroPET brain imaging in cynomolgus macaque; type: in vivo
Description: Before each scan (n = 2), the animal was fasted for 12 h and then initially anesthetized with ketamine (10 mg/kg) and glycopyrrolate (0.13 mg/kg) intramuscularly. Upon arrival at the scanner, the monkey was intubated, and a percutaneous catheter placed for tracer injection. The head was positioned supine in the adjustable head holder with the brain in the center of the field of view. Anesthesia was maintained at 0.75%–2.0% isoflurane/oxygen and the core temperature maintained at 37 °C. A 10-min transmission scan was performed to confirm positioning; this was followed by a 45-min transmission scan for attenuation correction.

[3] = healthy cynomolgus macaque, microPET

Blood-brain barrier penetration [1]: crossed the blood-brain barrier (BBB)
Biodistribution, blood ([1]; 5 min post injection): 0.506 ± 0.040 %ID/gram
Biodistribution, brain (total brain uptake) ([1]; 5 min post injection): 0.953 ± 0.115 %ID/gram
Biodistribution, fat ([1]; 5 min post injection): 0.155 ± 0.023 %ID/gram
Biodistribution, heart ([1]; 5 min post injection): 0.758 ± 0.052 %ID/gram
Biodistribution, kidney ([1]; 5 min post injection): 1.362 ± 0.054 %ID/gram
Biodistribution, liver ([1]; 5 min post injection): 2.198 ± 0.111 %ID/gram
Biodistribution, lung ([1]; 5 min post injection): 1.149 ± 0.058 %ID/gram
Biodistribution, muscle ([1]; 5 min post injection): 0.271 ± 0.005 %ID/gram
Biodistribution, pancreas ([1]; 5 min post injection): 1.007 ± 0.262 %ID/gram
Biodistribution, spleen ([1]; 5 min post injection): 0.659 ± 0.049 %ID/gram
Biodistribution, blood ([1]; 30 min post injection): 0.369 ± 0.031 %ID/gram
Biodistribution, brain (total brain uptake) ([1]; 30 min post injection): 0.287 ± 0.046 %ID/gram
Biodistribution, fat ([1]; 30 min post injection): 0.241 ± 0.042 %ID/gram
Biodistribution, heart ([1]; 30 min post injection): 0.377 ± 0.046 %ID/gram
Biodistribution, kidney ([1]; 30 min post injection): 0.807 ± 0.086 %ID/gram
Biodistribution, liver ([1]; 30 min post injection): 1.349 ± 0.116 %ID/gram
Biodistribution, lung ([1]; 30 min post injection): 0.740 ± 0.038 %ID/gram
Biodistribution, muscle ([1]; 30 min post injection): 0.325 ± 0.030 %ID/gram
Biodistribution, pancreas ([1]; 30 min post injection): 0.506 ± 0.066 %ID/gram
Biodistribution, spleen ([1]; 30 min post injection): 0.400 ± 0.052 %ID/gram
Biodistribution, blood ([1]; 60 min post injection): 0.300 ± 0.015 %ID/gram
Biodistribution, fat ([1]; 60 min post injection): 0.293 ± 0.076 %ID/gram
Biodistribution, heart ([1]; 60 min post injection): 0.245 ± 0.010 %ID/gram
Biodistribution, kidney ([1]; 60 min post injection): 0.559 ± 0.053 %ID/gram
Biodistribution, liver ([1]; 60 min post injection): 1.116 ± 0.024 %ID/gram
Biodistribution, lung ([1]; 60 min post injection): 0.485 ± 0.036 %ID/gram
Biodistribution, muscle ([1]; 60 min post injection): 0.199 ± 0.016 %ID/gram
Biodistribution, pancreas ([1]; 60 min post injection): 0.522 ± 0.036 %ID/gram
Biodistribution, spleen ([1]; 60 min post injection): 0.386 ± 0.027 %ID/gram
Time of peak brain uptake post-injection (time-activity curve) ([2]; healthy adult male cynomolgus macaque, i.v., microPET): 3 min
Blood-brain barrier penetration [2, 3]: able to cross the BBB
Structure (SMILES): [11CH3]Oc1ccc2c(c1)Sc1cc([N+](=O)[O-])ccc1N2 [[^11C]2a]
Biodistribution, brain (total brain uptake) ([1]; 60 min post injection): 0.158 ± 0.014 %ID/gram and 0.158 ± 0.013 %ID/gram
Distribution of radioactivity in brain regions [1]: homogeneous distribution in the brain regions
Brain washout kinetics [2, 3]: fast washout kinetics from the brain regions
Distribution of radioactivity in the brain ([2]; healthy cynomolgus macaque, summed image 0-120 min): homogeneous distribution of radioactivity in the brain

Blood-brain barrier penetration [1]: crossed the blood-brain barrier (BBB)
Biodistribution, blood ([1]; 5 min post injection): 0.553 ± 0.047 %ID/gram
Biodistribution, bone ([1]; 5 min post injection): 0.340 ± 0.027 %ID/gram
Biodistribution, brain (total brain uptake) ([1]; 5 min post injection): 0.758 ± 0.013 %ID/gram
Biodistribution, fat ([1]; 5 min post injection): 0.255 ± 0.037 %ID/gram
Biodistribution, heart ([1]; 5 min post injection): 0.757 ± 0.033 %ID/gram
Biodistribution, kidney ([1]; 5 min post injection): 1.070 ± 0.058 %ID/gram
Biodistribution, liver ([1]; 5 min post injection): 1.626 ± 0.221 %ID/gram
Biodistribution, lung ([1]; 5 min post injection): 0.833 ± 0.053 %ID/gram
Biodistribution, muscle ([1]; 5 min post injection): 0.430 ± 0.031 %ID/gram
Biodistribution, pancreas ([1]; 5 min post injection): 1.004 ± 0.147 %ID/gram
Biodistribution, spleen ([1]; 5 min post injection): 0.672 ± 0.064 %ID/gram
Biodistribution, blood ([1]; 30 min post injection): 0.589 ± 0.016 %ID/gram
Biodistribution, bone ([1]; 30 min post injection): 0.309 ± 0.020 %ID/gram
Biodistribution, brain (total brain uptake) ([1]; 30 min post injection): 0.465 ± 0.018 %ID/gram
Biodistribution, fat ([1]; 30 min post injection): 0.425 ± 0.023 %ID/gram
Biodistribution, heart ([1]; 30 min post injection): 0.505 ± 0.015 %ID/gram
Biodistribution, kidney ([1]; 30 min post injection): 0.988 ± 0.090 %ID/gram
Biodistribution, liver ([1]; 30 min post injection): 0.847 ± 0.027 %ID/gram
Biodistribution, lung ([1]; 30 min post injection): 0.561 ± 0.021 %ID/gram
Biodistribution, muscle ([1]; 30 min post injection): 0.451 ± 0.018 %ID/gram
Biodistribution, pancreas ([1]; 30 min post injection): 0.546 ± 0.068 %ID/gram
Biodistribution, spleen ([1]; 30 min post injection): 0.509 ± 0.022 %ID/gram
Biodistribution, blood ([1]; 60 min post injection): 0.606 ± 0.035 %ID/gram
Biodistribution, bone ([1]; 60 min post injection): 0.407 ± 0.043 %ID/gram
Biodistribution, brain (total brain uptake) ([1]; 60 min post injection): 0.410 ± 0.030 %ID/gram
Biodistribution, fat ([1]; 60 min post injection): 0.371 ± 0.067 %ID/gram
Biodistribution, heart ([1]; 60 min post injection): 0.466 ± 0.040 %ID/gram
Biodistribution, kidney ([1]; 60 min post injection): 0.678 ± 0.032 %ID/gram
Biodistribution, liver ([1]; 60 min post injection): 0.561 ± 0.028 %ID/gram
Biodistribution, lung ([1]; 60 min post injection): 0.491 ± 0.030 %ID/gram
Biodistribution, muscle ([1]; 60 min post injection): 0.376 ± 0.019 %ID/gram
Biodistribution, pancreas ([1]; 60 min post injection): 0.409 ± 0.029 %ID/gram
Biodistribution, spleen ([1]; 60 min post injection): 0.446 ± 0.038 %ID/gram
Biodistribution, blood ([1]; 120 min post injection): 0.585 ± 0.046 %ID/gram
Biodistribution, bone ([1]; 120 min post injection): 0.644 ± 0.071 %ID/gram
Biodistribution, brain (total brain uptake) ([1]; 120 min post injection): 0.359 ± 0.016 %ID/gram
Biodistribution, fat ([1]; 120 min post injection): 0.293 ± 0.048 %ID/gram
Biodistribution, heart ([1]; 120 min post injection): 0.410 ± 0.030 %ID/gram
Biodistribution, kidney ([1]; 120 min post injection): 0.659 ± 0.027 %ID/gram
Biodistribution, liver ([1]; 120 min post injection): 0.467 ± 0.023 %ID/gram
Biodistribution, lung ([1]; 120 min post injection): 0.436 ± 0.018 %ID/gram
Biodistribution, muscle ([1]; 120 min post injection): 0.315 ± 0.015 %ID/gram
Biodistribution, pancreas ([1]; 120 min post injection): 0.330 ± 0.021 %ID/gram
Biodistribution, spleen ([1]; 120 min post injection): 0.398 ± 0.019 %ID/gram
In vivo defluorination (bone uptake) ([1]; rats, bone uptake up to 120 min): no defluorination was observed
Structure (SMILES): O=[N+]([O-])c1ccc2c(c1)Sc1cc(OCC[18F])ccc1N2 [[^18F]2b]
Distribution of radioactivity in brain regions [1]: homogeneous distribution in the brain regions
